The structures appear in SMILES notation.

Type in all cases: biochemical
The subject of assay [1] is fructosyl peptide oxidase. Description: Substrate specificity, pH profile and stability of fructosyl peptide oxidase-immobilized column (Example 1). Conditions: for Relative activity (%) pH 6.0: buffer pH 6.0; for Relative activity (%) pH 6.0 / Relative activity (%) pH 7.0 / Relative activity (%) pH 8.0: normalized to 100 for the response to fructosyl valine at each pH, 30° C.; for Relative activity (%) pH 7.0: buffer pH 7.0; for Relative activity (%) pH 8.0: buffer pH 8.0. The method, then:
Firebrick powder (150 mg, 30 to 60 meshes) was thoroughly dried, immersed in a 10% solution of γ-aminopropyltriethoxysilane in anhydrous toluene for one hour, then thoroughly washed with anhydrous toluene and dried. The aminosilane-modified support was immersed in a 5% aqueous glutaraldehyde solution for one hour, and then thoroughly washed with distilled water, followed by substitution with 100 mM sodium phosphate buffer (pH 7.0). The buffer was removed as far as possible. A solution ([…]) of fructosyl peptide oxidase (140 units/mL, from Kikkoman Co.) in 100 mM sodium phosphate buffer (pH 7.0) was contacted with the formylated firebrick powder, and then incubated at 0 to 4° C. for one day for the enzyme immobilization. The support immobilized enzyme was packed into a column (internal diameter: 3.5 mm, length: 30 mm) to give the fructosyl peptide oxidase-immobilized column.
The buffer was pumped out from a buffer tank (1) using a pump (2), and 5 μL of a sample was injected using a valve (4). A protease-immobilized column (14), a flow type calorimeter (16), a second immobilized enzyme column (19) and a second electrode for hydrogen peroxide (20) were not placed, and a fructosyl peptide oxidase-immobilized column was placed as a first immobilized enzyme column (17), followed by an electrode for hydrogen peroxide (18) downstream thereof. The injected sample transferred with the flowing buffer, passed through a mixing coil (15) inside an incubator (13), and thus the sample temperature was adjusted and the sample was mixed with the buffer. The sample passed through the fructosyl peptide oxidase-immobilized column (17) and the electrode for hydrogen peroxide (18) to produce hydrogen peroxide from fructosyl valylhistidine in the sample, and then the change of the current was detected.
A composition of the buffer used in this assay apparatus contained 100 mM phosphoric acid, 50 mM potassium chloride and 1 mM sodium azide, and its pH was 7.0.
(§1) The flow rate of the buffer was 1.0 mL/minute, and the temperature in the incubator was 30° C.
Using the assay apparatus described in (3), a 5 μL portion of fructosyl glycine, fructosyl valine or fructosyl valylhistidine was injected, and the characteristics of the fructosyl peptide oxidase-immobilized column was examined.
When pH of the buffer was 6.0, 7.0 or 8.0, the assay results of the activity for the oxidation of fructosyl glycine (FG), fructosyl valine (FV) or fructosyl valylhistidine (FVH) were shown in FIG. 3. For fructosyl glycine the activity was high at pH 8.0, but the activity at pH 6.0 was decreased to about 50% of that at pH 8.0. For fructosyl valine and fructosyl valylhistidine, the activity was high at pH 6.0 and 7.0.
Response values in Table 1 were normalized to 100 for the response to fructosyl valine at each pH.

For assay [2], the system named is fructosyl amino acid oxidase. As to the kind of experiment: Substrate specificity of fructosyl amino acid oxidase-immobilized column (Example 3). Conditions: buffers pH 8.0; for Relative response value: normalized to 100 for the response to fructosyl glycine, 37° C., dialysis module. An excerpt: The buffer was removed as far as possible. […] The support immobilized enzyme was packed into the column (internal diameter: 3.5 mm, length: 30 mm) to give the fructosyl amino acid oxidase-immobilized column. In the assay apparatus shown in FIG. 2, the flow type calorimeter (16), the protease-immobilized column (14) and the first immobilized enzyme column (17) were not disposed, and the electrode for glucose was placed in the electrode for hydrogen peroxide (18), the fructosyl amino acid oxidase-immobilized column in the second immobilized enzyme column (19), and the electrode for hydrogen peroxide in the electrode for hydrogen peroxide (20). The buffer B was pumped out from the buffer tank (24) using the pump (25), and a 100 μL portion of the sample was injected using the valve (4). […] Since the buffer A was pumped out from the buffer tank (1) by the pump (2), the components with low molecular weight in the sample dialyzed in the dialysis module (27) passed through the electrode for glucose (18), the fructosyl amino acid oxidase-immobilized column (19) and the electrode for hydrogen peroxide (20), and hydrogen peroxide from glucose and fructosyl amino acid in the sample was detected. […] The temperature in the incubator was 37° C. The substrate specificity of fructosyl amino acid oxidase-immobilized column for various fructosyl amino acids, fructosyl peptides, amino acids and sugars was examined using the assay apparatus mentioned in (4) when pH of the buffers was 8.0.

The test system of assay [3] is fructosyl peptide oxidase. Description: Substrate specificity of fructosyl peptide oxidase-immobilized column (Example 4). Conditions: buffer A pH 7.0; normalized to 100 for the response to fructosyl valine; 30° C. The protocol:
In the same way as described in Example 1 (1), 150 mg of firebrick powder (30 to 60 meshes) was formylated. The solution (200 μL) of fructosyl peptide oxidase (140 units/mL, from Kikkoman Co.) in 100 mM sodium phosphate buffer (pH 7.0) was contacted with the formylated firebrick powder, and then incubated at 0 to 4° C. for one day for the enzyme immobilization.
In the assay apparatus shown in FIG. 1, the protease-immobilized column (14), the flow type calorimeter (16) and the first immobilized enzyme column (17) were not disposed, and the electrode for glucose was placed in the electrode for hydrogen peroxide (18), the fructosyl peptide oxidase-immobilized column in the second immobilized enzyme column (19), and the electrode for hydrogen peroxide in the electrode for hydrogen peroxide (20). The buffer A was pumped out from the buffer tank (1) by the pump (2), and a 5 μL portion of the sample was injected using the valve (4). The injected sample transferred with the flowing buffer A, passed through the mixing coil (15) in the incubator (13), and thus the sample temperature was adjusted and the sample was mixed with the buffer. And then the sample passed through the downstream electrode for glucose (18), fructosyl peptide oxidase-immobilized column (19) and an electrode for hydrogen peroxide (20), hydrogen peroxide was produced from fructosyl valylhistidine in the sample, and the change of the current was detected.
The composition of the buffer A for the assay apparatus contained 100 mM phosphoric acid, 50 mM potassium chloride and 1 mM sodium azide, and its pH was 7.0.
as §1
On fructosyl peptide oxidase-immobilized column, the substrate specificity for various fructosyl amino acids, fructosyl peptides, amino acids and sugars was examined using the assay apparatus mentioned in (4) when pH of the buffer A was 7.0. In the Table 4, the relative values were normalized to 100 for the response to fructosyl valine.

Assay [4] relates to fructosyl amino acid oxidase. Description: Characteristics of fructosyl amino acid oxidase-immobilized column (Example 5). Particulars: sample concentration 10 mM; buffer pH 8.0, 37° C. The method, then: FIG. 1 was the flow type assay apparatus with one flow path. The buffer A was pumped out from the buffer tank (1) using the pump (2), and a 5 μL portion of the sample was injected using the valve (4). The fructosyl amino acid oxidase-immobilized column was placed in the first immobilized enzyme column (17) and the electrode for hydrogen peroxide was placed downstream. The second immobilized enzyme column (19), the second electrode for hydrogen peroxide (20), the protease-immobilized column (14) and the flow type calorimeter (16) were not disposed. The injected sample transferred with the flowing buffer, passed through the mixing coil (15) in the incubator (13), and thus the sample temperature was adjusted and the sample was mixed with the buffer. The sample passed through the fructosyl amino acid oxidase-immobilized column (17) and the electrode for hydrogen peroxide (18), hydrogen peroxide was produced from fructosyl valine in the sample, and the change of the current was detected.
The composition of the buffer for this assay apparatus contained 100 mM phosphoric acid, 50 mM potassium chloride and 1 mM sodium azide, and its pH was 8.0.
The flow rate of the buffer was 1.0 mL/minute, and the temperature in the incubator was 37° C.
Using the assay apparatus 1 mentioned in (3), a 5 μL portion of fructosyl glycine was injected, and the characteristics of the fructosyl amino acid oxidase-immobilized column was examined.
When pH in the buffer was 7.0, 7.5, 8.0, 8.5 or 9.0, the activity in the oxidation of fructosyl glycine was measured.

For the compound `C[C@H](N)C(=O)O` [Ala], in assay [1], the “Relative activity (%) pH 6.0” value was determined as 0%, the “Relative activity (%) pH 7.0” value was determined as 0% and the “Relative activity (%) pH 8.0” value is 0%. In assay [2], this compound displayed a Relative response value of 0.0. In assay [3], this compound registered a Relative response value of 0.0. Moreover, in assay [4], the “Relative activity (%)” value is reported as 0.0%.
For the compound `N[C@@H](CC(=O)O)C(=O)O` [Asp], in assay [1], the “Relative activity (%) pH 6.0” value is listed as 0%, the “Relative activity (%) pH 7.0” value is 0% and the “Relative activity (%) pH 8.0” value is given as 0%. The compound also registered a Relative response value in assay [2] of 0.0. Moreover, the Relative response value in assay [3] is on record as 0.0. For the same compound, the “Relative activity (%)” value in assay [4] amounted to 0.0%.
On to `NCC(=O)O` [Gly], for which, in assay [1], the “Relative activity (%) pH 6.0” value was 0%, the “Relative activity (%) pH 7.0” value is 0% and the “Relative activity (%) pH 8.0” value is reported as 0%. Besides, the Relative response value in assay [2] is listed as 0.0. The compound further came in with a Relative response value in assay [3] of 0.0. In addition, the “Relative activity (%)” value in assay [4] was 0.0%.
For `N[C@@H](CO)C(=O)O` [Ser], in assay [1], the “Relative activity (%) pH 6.0” value was 0%, the “Relative activity (%) pH 7.0” value was 0% and the “Relative activity (%) pH 8.0” value came out at 0%. This compound also displayed a Relative response value in assay [2] of 0.0. For the same compound, the Relative response value in assay [3] is given as 0.0. Moreover, the “Relative activity (%)” value in assay [4] is listed as 0.0%.
For the compound `OCC(O)CO` [Glycerol], in assay [1], the “Relative activity (%) pH 6.0” value is reported as 0%, the “Relative activity (%) pH 7.0” value was 0% and the “Relative activity (%) pH 8.0” value was 0%. Further, in assay [2], the Relative response value is reported as 0.0. The Relative response value in assay [3] was found to be 0.0. The “Relative activity (%)” value in assay [4] was found to be 0.0%.
In the case of `N[C@@H](CCC(=O)O)C(=O)O` [Glu], in assay [1], the “Relative activity (%) pH 6.0” value turned out to be 0%, the “Relative activity (%) pH 7.0” value was 0% and the “Relative activity (%) pH 8.0” value came out at 0%. Besides, the Relative response value in assay [2] worked out at 0.0. In addition, the Relative response value in assay [3] came to 0.0. In addition, the “Relative activity (%)” value in assay [4] turned out to be 0.0%.
For the compound `N[C@@H](Cc1ccccc1)C(=O)O` [Phe], in assay [1], the “Relative activity (%) pH 6.0” value is 0%, the “Relative activity (%) pH 7.0” value was determined as 0% and the “Relative activity (%) pH 8.0” value amounted to 0%. This compound also yielded a Relative response value in assay [2] of 0.0. The compound further had a Relative response value in assay [3] of 0.0. Further, the “Relative activity (%)” value in assay [4] is 0.0%.
Consider `O=C(CO)[C@@H](O)[C@H](O)[C@H](O)CO` [Fructose], for which, in assay [1], the “Relative activity (%) pH 6.0” value was 0%, the “Relative activity (%) pH 7.0” value is on record as 0% and the “Relative activity (%) pH 8.0” value came out at 0%. The Relative response value in assay [2] was found to be 0.0. Also, in assay [3], the Relative response value was found to be 0.0. Also, the “Relative activity (%)” value in assay [4] was 1.0%.
In the case of `OC[C@@H](O)[C@@H](O)[C@H](O)[C@@H](O)CO` [D-Sorbitol], in assay [1], the “Relative activity (%) pH 6.0” value worked out at 0%, the “Relative activity (%) pH 7.0” value is reported as 0% and the “Relative activity (%) pH 8.0” value is given as 0%. For the same compound, in assay [2], the Relative response value came out at 0.0. Moreover, the Relative response value in assay [3] was 0.0. Further, the “Relative activity (%)” value in assay [4] came to 0.0%.
On to `N[C@@H](Cc1c[nH]c2ccccc12)C(=O)O` [Trp], for which, in assay [1], the “Relative activity (%) pH 6.0” value came to 0%, the “Relative activity (%) pH 7.0” value was found to be 0% and the “Relative activity (%) pH 8.0” value came to 0%. This compound showed a Relative response value in assay [2] of 0.0. The Relative response value in assay [3] is reported as 0.0. Moreover, in assay [4], the “Relative activity (%)” value is 13.0%.
Take `CC(C)[C@H](NC1(CO)O[C@H](CO)[C@@H](O)[C@@H]1O)C(=O)N[C@@H](Cc1c[nH]cn1)C(=O)O` (some centres unmarked) [Fructosyl valyl histidine]: in assay [1] (buffer pH 6.0, 7.0 or 8.0 tested), the “pH at which activity was maximized” value was found to be 7.0. In assay [1], the “Relative activity (%) pH 6.0” value is 88%, the “Relative activity (%) pH 7.0” value is listed as 87% and the “Relative activity (%) pH 8.0” value worked out at 66%. In assay [2], the “response of fructosyl amino acid oxidase-immobilized column” value is on record as “scarcely responded” and the Relative response value is 1.3. Further, the Relative response value in assay [3] was 86.8.
`N[C@@H](CS)C(=O)O` [Cys]: in assay [4], the “Relative activity (%)” value amounted to 507.0%.

Source of the values: US8128802B2, “Analysis apparatus and analysis method for glycosylated hemoglobin” (OJI Paper Co., Ltd, priority 2005, dated 2012).
